Source: patent US20240301319A1, “PERFUMING COMPOSITIONS” (FIRMNICH SA, priority 2017, published 2024)
Read-outs that look alike come from different tables or passages of the source. One block for each molecule: values may come before it.

What was measured:
[1] = Odor threshold and odor value of perfuming compounds (Tables 4 to 10)
[2] = Volatility of perfuming compounds (Tables 4 to 10), with top/middle/bottom note type; assay type: physicochemical
Outline: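 Note type follows from air volatility (μg/l): bottom 49–0.1, middle 99–50, top 70,000–100. Compounds are listed within watery, green, fruity, citrus, sweet, gourmand and woody families.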

[3] = Table 8, perfuming compounds having a sweet note
[4] = Table 6, perfuming compounds having a fruity note, note type by volatility
[5] = Table 8, perfuming compounds having a sweet note, note type by volatility
[6] = Table 9, perfuming compounds having a gourmand note, note type by volatility
[7] = Table 6, perfuming compounds having a fruity note
[8] = perfuming compounds having a green note
[9] = note type (Top/Middle/Bottom) by volatility, perfuming compounds having a green note
[10] = Table 10, perfuming compounds having a woody note, note type by volatility
[11] = Table 7, citrus note, equals volatility divided by odor threshold
[12] = Table 7, citrus note, top, middle or bottom note
[13] = Table 4, watery note, equals volatility divided by odor threshold
[14] = Table 4, watery note, top, middle or bottom note

Molecule: CCCCOC(C)=O [BUTYL ACETATE]
Odor Threshold [1, 3]: 4.18E−01 μg/l air
Odor Value [1, 3]: 2.80E+05
Odor Threshold ([1]; Table 9, gourmand note): 4.18E−01 μg/l air
Volatility [2]: 117207.52 μg/l air
Type [2, 4]: TOP (perfuming compounds having a volatility ranging from 70,000 to 100 μg/l in air are referred to as “top notes”)
Type [2, 5]: Top
Type [2, 6]: Top

Molecule: CCC(CC(C)CC)=NO (stereo not drawn) [5-METHYL-3-HEPTANONE OXIME]
Odor Threshold [1, 7]: 8.80E−03 μg/l air
Odor Value [1, 7]: 1.45E+04
Odor Threshold [1, 3]: 8.80E−03 μg/l air
Odor Value [1, 3]: 1.45E+04
Odor Threshold (μg/l air) [1, 8]: 8.80E−03 μg/l air
Volatility [2, 7]: 128.04 μg/l air
Type [2, 4]: TOP (perfuming compounds having a volatility ranging from 70,000 to 100 μg/l in air are referred to as “top notes”)
Volatility [2, 3]: 128.04 μg/l air
Type [2, 5]: Top
Type [2, 9]: Top
Volatility (μg/l air) [2, 8]: 128.04 μg/l air

Molecule: CCCC1CCC(=O)O1 (racemic) [(+−)-4-HEPTANOLIDE]
Odor Threshold [1, 3]: 5.18E−04 μg/l air
Odor Value [1, 3]: 5.70E+05
Volatility [2, 3]: 295.34 μg/l air
Type [2, 5]: Top

Molecule: tricyclo[5.2.1.0~2,6~]dec-3-en-8-yl acetate (A) + tricyclo[5.2.1.0~2,6~]dec-4-en-8-yl acetate (B)
Odor Threshold (μg/l air) ([1]; Table 7, citrus note): 7.19E−04 μg/l air
Odor Value [1, 11]: 1.34E+05
Volatility (μg/l air) ([2]; Table 7, citrus note): 96.53 μg/l air
Type [2, 12]: Middle

Molecule: CCCCCC1CCCC1O (racemic) [(+−)-2-PENTYL-1-CYCLOPENTANOL]
Odor Threshold [1, 3]: 5.43E−03 μg/l air
Odor Value [1, 3]: 1.80E+04
Volatility [2, 3]: 97.79 μg/l air
Type [2, 5]: Middle

Molecule: CC(=O)c1ccccc1 [1-phenylethanone]
Odor Threshold [1, 3]: 6.61E−03 μg/l air
Odor Value [1, 3]: 2.62E+05
Volatility [2, 3]: 1728.98 μg/l air
Type [2, 5]: Top

Molecule: CCC(=CCC1CC=C(C)C1(C)C)CO (racemic)
Odor Threshold ([1]; Table 10, woody note): 7.80E−05 μg/l air
Type [2, 10]: Bottom
Volatility ([2]; Table 10, woody note): 3.69 μg/l air

Molecule: C=CC(C)(CCC=C(C)C)OC(C)=O (racemic) [(+−)-1,5-DIMETHYL-1-VINYL-4-HEXENYL ACETATE]
Odor Threshold (μg/l air) ([1]; Table 7, citrus note): 7.40E−02 μg/l air
Odor Threshold (μg/l air) [1, 8]: 7.40E−02 μg/l air
Type [2, 4]: TOP (perfuming compounds having a volatility ranging from 70,000 to 100 μg/l in air are referred to as “top notes”)
Type [2, 12]: Top
Type [2, 9]: Top
Volatility (μg/l air) [2, 8]: 339.21 μg/l air

Molecule: CCCC(S)CCOC (racemic) [(+−)-1-METHOXY-3-HEXANETHIOL]
Odor Threshold (μg/l air) [1, 8]: 1.92E−07 μg/l air
Type [2, 9]: Top
Volatility (μg/l air) [2, 8]: 2534.77 μg/l air

Molecule: CC=CC(=O)C(C)CC (stereo not drawn) [5-METHYL-2-HEPTEN-4-ONE]
Odor Threshold [1, 3]: 7.62E−07 μg/l air
Odor Value [1, 3]: 7.26E+09
Volatility [2, 3]: 5525.83 μg/l air
Type [2, 5]: Top

Molecule: CCCc1ccc2c(c1)OCC(=O)CO2 [7-PROPYL-2H,4H-1,5-BENZODIOXEPIN-3-ONE]
Odor Threshold (μg/l air) ([1]; Table 4, watery note): 6.43E−05 μg/l air
Odor Value [1, 13]: 7.54E+04
Odor Threshold (μg/l air) [1, 8]: 6.43E−05 μg/l air
Volatility (μg/l air) ([2]; Table 4, watery note): 4.85 μg/l air
Type [2, 14]: bottom (perfuming compounds having a volatility ranging from 49 to 0.1 μg/l in air are referred to as “bottom notes”)
Type [2, 9]: Bottom
Volatility (μg/l air) [2, 8]: 4.85 μg/l air

Molecule: COC(C)(C)[C@H]1CC=C(C)CC1
Odor Threshold (μg/l air) [1, 8]: 1.99E−01 μg/l air
Type [2, 9]: Top
Volatility (μg/l air) [2, 8]: 993.39 μg/l air

Molecule: COc1nccnc1CCCC(C)C
Odor Threshold (μg/l air) [1, 8]: 1.18E−07 μg/l air
Type [2, 9]: Top
Volatility (μg/l air) [2, 8]: 195.24 μg/l air

Molecule: CCCCCCO [1-hexanol]
Odor Threshold (μg/l air) [1, 8]: 1.17E−01 μg/l air
Type [2, 9]: Top
Volatility (μg/l air) [2, 8]: 2070.00 μg/l air

Further lines, with some results ahead:

Type [2, 10]: Bottom
Volatility ([2]; Table 10, woody note): 5.04 μg/l air
Molecule: CCOC(C)OC1CCCCCCCCCCC1 (racemic) [(+−)-(1-ethoxyethoxy)cyclododecane]
Odor Threshold ([1]; Table 10, woody note): 2.51E−02 μg/l air

Type [2, 10]: Bottom
Volatility ([2]; Table 10, woody note): 6.63 μg/l air
Molecule: CCOCOC1CCCCCCCCCCC1 [(ETHOXYMETHOXY)CYCLODODECANE]
Odor Threshold ([1]; Table 10, woody note): 8.90E−02 μg/l air

Volatility [2, 7]: 33.88 μg/l air
Type [2, 4]: Bottom
Type [2, 10]: Bottom
Volatility ([2]; Table 10, woody note): 33.88 μg/l air
Molecule: C/C=C(\C)C(=O)OCc1ccccc1 [BENZYL (E)-2-METHYL-2-BUTENOATE]
Odor Threshold [1, 7]: 3.07E−04 μg/l air
Odor Value [1, 7]: 1.11E+05
Odor Threshold ([1]; Table 10, woody note): 3.07E−04 μg/l air

Volatility [2, 7]: 264.84 μg/l air
Type [2, 9]: Top
Volatility (μg/l air) [2, 8]: 264.84 μg/l air
Molecule: CCCCCC/C=C/C(=O)OC [methyl (2E)-2-nonenoate]
Odor Threshold (μg/l air) [1, 8]: 5.84E−02 μg/l air
Type [2, 4]: TOP (perfuming compounds having a volatility ranging from 70,000 to 100 μg/l in air are referred to as “top notes”)

Volatility [2, 7]: 113.60 μg/l air
Type [2, 9]: Top
Volatility (μg/l air) [2, 8]: 113.60 μg/l air
Molecule: CCC(=O)OCc1ccccc1 [BENZYL PROPANOATE]
Odor Threshold [1, 7]: 2.81E−02 μg/l air
Odor Value [1, 7]: 4.04E+03
Odor Threshold (μg/l air) [1, 8]: 2.81E−02 μg/l air
Type [2, 4]: TOP (perfuming compounds having a volatility ranging from 70,000 to 100 μg/l in air are referred to as “top notes”)

Volatility [2, 7]: 36.76 μg/l air
Type [2, 4]: Bottom
Type [2, 9]: Bottom
Volatility (μg/l air) [2, 8]: 36.76 μg/l air
Molecule: CCCCC/C=C\C=C\C(=O)OCC [ethyl (2E,4Z)-2,4-decadienoate]
Odor Threshold [1, 7]: 3.07E−04 μg/l air
Odor Value [1, 7]: 1.20E+05
Odor Threshold (μg/l air) [1, 8]: 3.07E−04 μg/l air

Volatility (μg/l air) ([2]; Table 7, citrus note): 202.66 μg/l air
Type [2, 12]: Top
Molecule: (Z)-3,7-DIMETHYL-2,6-OCTADIENAL (A) + (E)-3,7-DIMETHYL-2,6-OCTADIENAL (B)
Odor Threshold (μg/l air) ([1]; Table 7, citrus note): 4.12E−03 μg/l air
Odor Value [1, 11]: 4.92E+04

Volatility [2, 7]: 9.61 μg/l air
Type [2, 4]: Bottom
Volatility [2, 3]: 9.61 μg/l air
Type [2, 5]: Bottom
Volatility ([2]; Table 9, gourmand note): 9.61 μg/l air
Type [2, 6]: Bottom
Molecule: CCCCCC1CCCC(=O)O1 (racemic) [(+−)-6-pentyltetrahydro-2H-pyran-2-one]
Odor Threshold [1, 7]: 3.72E−05 μg/l air
Odor Value [1, 7]: 2.58E+05
Odor Threshold [1, 3]: 3.72E−05 μg/l air
Odor Value [1, 3]: 2.58E+05
Odor Threshold ([1]; Table 9, gourmand note): 3.72E−05 μg/l air

Volatility [2, 7]: 25.34 μg/l air
Type [2, 4]: Bottom
Type [2, 9]: Bottom
Volatility (μg/l air) [2, 8]: 25.34 μg/l air
Molecule: CCC=CCC=C/C=C/C(=O)OCC [ETHYL (2E)-2,4,7-DECATRIENOATE]
Odor Threshold [1, 7]: 1.49E−02 μg/l air
Odor Value [1, 7]: 1.70E+03
Odor Threshold (μg/l air) [1, 8]: 1.49E−02 μg/l air

Volatility [2, 7]: 57.43 μg/l air
Type [2, 4]: Middle
Volatility (μg/l air) ([2]; Table 7, citrus note): 57.43 μg/l air
Type [2, 12]: Middle
Molecule: CCCC1CCCC(=O)O1 (racemic) [(+−)-6-propyltetrahydro-2H-pyran-2-one]
Odor Threshold [1, 7]: 2.17E−04 μg/l air
Odor Value [1, 7]: 2.65E+05
Odor Threshold (μg/l air) ([1]; Table 7, citrus note): 2.17E−04 μg/l air
Odor Value [1, 11]: 2.65E+05

Volatility (μg/l air) ([2]; Table 4, watery note): 1.52 μg/l air
Molecule: COC(=O)c1c(C)cc(O)c(C)c1O [METHYL 2,4-DIHYDROXY-3,6-DIMETHYLBENZOATE]
Odor Threshold (μg/l air) ([1]; Table 4, watery note): 4.89E−06 μg/l air
Odor Value [1, 13]: 3.11E+05
Type [2, 14]: bottom (perfuming compounds having a volatility ranging from 49 to 0.1 μg/l in air are referred to as “bottom notes”)

Type [2, 9]: Top
Volatility (μg/l air) [2, 8]: 3752.17 μg/l air
Molecule: CCC/C=C/CO [(E)-2-HEXEN-1-OL]
Odor Threshold (μg/l air) [1, 8]: 1.29E−01 μg/l air
